The data set deals with CCRIS mutagenicity, Ames/micronucleus/aberration tests. Nature of the data set: CCRIS mutagenicity studies.
Where [1] appears, read: Test System: AMES SALMONELLA TYPHIMURIUM, Strain/Indicator: TA98, Metabolic Activation: NONE, Method: PREINCUBATION
Setting [2] is: Test System: AMES SALMONELLA TYPHIMURIUM, Strain/Indicator: TA100, Metabolic Activation: HAMSTER, LIVER, S-9, AROCLOR 1254 (10%), Method: PREINCUBATION
Setting [3] is: Test System: AMES SALMONELLA TYPHIMURIUM, Strain/Indicator: TA100, Metabolic Activation: NONE, Method: PREINCUBATION
Where [4] appears, read: Test System: AMES SALMONELLA TYPHIMURIUM, Strain/Indicator: TA100, Metabolic Activation: RAT, LIVER, S-9, AROCLOR 1254 (10%), Method: PREINCUBATION
[5] abbreviates: Test System: AMES SALMONELLA TYPHIMURIUM, Strain/Indicator: TA1535, Metabolic Activation: HAMSTER, LIVER, S-9, AROCLOR 1254 (10%), Method: PREINCUBATION
Setting [6] is: Test System: AMES SALMONELLA TYPHIMURIUM, Strain/Indicator: TA1535, Metabolic Activation: NONE, Method: PREINCUBATION
Setting [7] is: Test System: AMES SALMONELLA TYPHIMURIUM, Strain/Indicator: TA1535, Metabolic Activation: RAT, LIVER, S-9, AROCLOR 1254 (10%), Method: PREINCUBATION

Active and inactive are the calls of the source. No rule for the calls is given here.

On to `COc1ccc(C(=O)c2ccccc2)c(O)c1`, for which the mutagenic call by setting is: (Test System: AMES SALMONELLA TYPHIMURIUM, Strain/Indicator: TA97, Metabolic Activation: HAMSTER, LIVER, S-9, AROCLOR 1254 (10%), Method: PREINCUBATION) “inactive; negative”; (Test System: AMES SALMONELLA TYPHIMURIUM, Strain/Indicator: TA97, Metabolic Activation: HAMSTER, LIVER, S-9, AROCLOR 1254 (30%), Method: PREINCUBATION) “inactive; negative”; (Test System: AMES SALMONELLA TYPHIMURIUM, Strain/Indicator: TA97, Metabolic Activation: NONE, Method: PREINCUBATION) “inactive; negative”; (Test System: AMES SALMONELLA TYPHIMURIUM, Strain/Indicator: TA97, Metabolic Activation: RAT, LIVER, S-9, AROCLOR 1254 (10%), Method: PREINCUBATION) “inactive; negative”; (Test System: AMES SALMONELLA TYPHIMURIUM, Strain/Indicator: TA97, Metabolic Activation: RAT, LIVER, S-9, AROCLOR 1254 (30%), Method: PREINCUBATION) “inactive; negative”; (Test System: AMES SALMONELLA TYPHIMURIUM, Strain/Indicator: TA98, Metabolic Activation: HAMSTER, LIVER, S-9, AROCLOR 1254 (10%), Method: PREINCUBATION) “inactive; negative”. In addition, the mutagenic call (Test System: AMES SALMONELLA TYPHIMURIUM, Strain/Indicator: TA98, Metabolic Activation: HAMSTER, LIVER, S-9, AROCLOR 1254 (30%), Method: PREINCUBATION) was “inactive; negative”; the mutagenic call under setting [1] was “inactive; negative”; the mutagenic call (Test System: AMES SALMONELLA TYPHIMURIUM, Strain/Indicator: TA98, Metabolic Activation: RAT, LIVER, S-9, AROCLOR 1254 (10%), Method: PREINCUBATION) was “inactive; negative”; the mutagenic call (Test System: AMES SALMONELLA TYPHIMURIUM, Strain/Indicator: TA98, Metabolic Activation: RAT, LIVER, S-9, AROCLOR 1254 (30%), Method: PREINCUBATION) was “inactive; negative”; the mutagenic call under setting [2] is “inactive; negative”; the mutagenic call (Test System: AMES SALMONELLA TYPHIMURIUM, Strain/Indicator: TA100, Metabolic Activation: HAMSTER, LIVER, S-9, AROCLOR 1254 (30%), Method: PREINCUBATION) is “inactive; negative”. The mutagenic call runs as follows: under setting [3], “inactive; negative”; under setting [4], “inactive; negative”; (Test System: AMES SALMONELLA TYPHIMURIUM, Strain/Indicator: TA100, Metabolic Activation: RAT, LIVER, S-9, AROCLOR 1254 (30%), Method: PREINCUBATION) “inactive; negative”; under setting [5], “inactive; negative”; (Test System: AMES SALMONELLA TYPHIMURIUM, Strain/Indicator: TA1535, Metabolic Activation: HAMSTER, LIVER, S-9, AROCLOR 1254 (30%), Method: PREINCUBATION) “inactive; negative”; under setting [6], “inactive; negative”. Further, the mutagenic call runs as follows: under setting [7], “inactive; negative”; (Test System: AMES SALMONELLA TYPHIMURIUM, Strain/Indicator: TA1535, Metabolic Activation: RAT, LIVER, S-9, AROCLOR 1254 (30%), Method: PREINCUBATION) “inactive; negative”; (Test System: AMES SALMONELLA TYPHIMURIUM, Strain/Indicator: TA1537, Metabolic Activation: HAMSTER, LIVER, S-9, AROCLOR 1254 (10%), Method: PREINCUBATION) “inactive; negative”; (Test System: AMES SALMONELLA TYPHIMURIUM, Strain/Indicator: TA1537, Metabolic Activation: NONE, Method: PREINCUBATION) “inactive; negative”; (Test System: AMES SALMONELLA TYPHIMURIUM, Strain/Indicator: TA1537, Metabolic Activation: RAT, LIVER, S-9, AROCLOR 1254 (10%), Method: PREINCUBATION) “inactive; negative”; (Test System: MOUSE LYMPHOMA, Strain/Indicator: L5178Y (TK+/TK-), Metabolic Activation: NONE, Method: SUSPENSION/PLATE) “inactive; positive. reevaluation of results: negative”. For the same compound, the mutagenic call (Test System: MOUSE LYMPHOMA, Strain/Indicator: L5178Y (TK+/TK-), Metabolic Activation: RAT, LIVER, S-9, AROCLOR 1254, Method: SUSPENSION/PLATE) is “active; positive. reevaluation of results: equivocal”.

As to `O=C(O)/C=C(\CCl)C(Cl)Cl`, the mutagenic call under setting [1] is “inactive; negative”; the mutagenic call under setting [3] was “active; positive”; the mutagenic call (Test System: AMES SALMONELLA TYPHIMURIUM, Strain/Indicator: TA104, Metabolic Activation: NONE, Method: PREINCUBATION) was “inactive; negative”.

For the compound `c1ccc2cc3c(cc2c1)c1cccc2ccc4cccc3c4c21`, under “Test System: HUMAN H1A1V2 CELLS, Strain/Indicator: TK LOCUS, Metabolic Activation: NONE, Method: SUSPENSION/PLATE”, the mutagenic call was “active; positive”.

For the compound `COc1ccc(-c2oc3ccccc3c(=O)c2N)cc1N`, the mutagenic call by setting is: (Test System: AMES SALMONELLA TYPHIMURIUM, Strain/Indicator: TA100, Metabolic Activation: RAT LIVER S-9, AROCLOR 1254, Method: STANDARD PLATE) “active; positive”; (Test System: AMES SALMONELLA TYPHIMURIUM, Strain/Indicator: YG1042, Metabolic Activation: RAT LIVER S-9, AROCLOR 1254, Method: STANDARD PLATE) “active; positive”.

Take `ClC(Cl)(Cl)CC1CO1` (configuration not stated): the mutagenic call reads like this: under setting [2], “inactive; negative”; under setting [3], “active; positive”; under setting [4], “inactive; negative”; under setting [5], “inactive; negative”; under setting [6], “inactive; negative”; under setting [7], “inactive; negative”.

Source of the values: PubChem BioAssay AID1259407 (Chemical Carcinogenesis Research Information System (CCRIS), 2018).
